Reference: patent US10195044B2, “Intervertebral disc implant” (Sinai Health System, priority 2013, dated 2019)

System: sheep PDCs
Test: ALP activity of predifferentiated chondrocytes cultured on CPP substrates

N[C@@H](Cc1cc(I)c(Oc2ccc(O)c(I)c2)c(I)c1)C(=O)O [T3, triiodothyronine]
ALP activity (3 nM T3, absence of dexamethasone, 1 week on CPP substrates): maximized | ALP activity level over 2 week culture (continuous 3 nM T3 treatment, maintained up to day 14): significantly increased by day 4
